Patent publication US20110111014A1, “METHODS AND COMPOSITIONS FOR TREATMENT OF NEUROLOGICAL DISORDERS” (Parkinson's Institute, priority 2007, published 2011)
Counter-ions that a name gives are not always drawn. Blank lines part the entries; values can stand above or below the compound they belong to.

Key:
α-synuclein [1] = molecular target: T1, α-synuclein (Homo sapiens, UniProt P37840); experiment: Disaggregation Thioflavin T assay; format: biochemical; conditions: polyphenol inhibitors
T1 construct: made in house; host or cells: E. coli BL21(DE3), plasmid pRK172/α-synuclein WT

α-synuclein [2] = molecular target: T1, α-synuclein; experiment: SEC HPLC, oligomer formation; format: biochemical; conditions: none with control
α-synuclein [3] = molecular target: T1, α-synuclein; experiment: Electron microscopy of fibrils (secondary assay); format: biochemical; conditions: figure legends
α-synuclein [4] = molecular target: T1, α-synuclein; experiment: Aggregation inhibition Thioflavin T assay (primary assay); format: biochemical; conditions: for Thioflavin T signal / fibril formation by Thioflavin T fluorescence: compared with control samples (FIGS. 1-13); for lagtime for fibrillation: NINDS Collection 2 Library
α-synuclein [5] = molecular target: T1, α-synuclein; experiment: Centrifugation to separate soluble and insoluble protein, SDS-PAGE; format: biochemical; conditions: for protein soluble after incubation, SDS PAGE of supernatant vs. total mixture: figure legends
α-synuclein [6] = molecular target: T1, α-synuclein; experiment: Atomic force microscopy of fibrils; format: biochemical; conditions: 45 hours post treatment, compared to control
Description: Atomic force microscopy (AFM): AFM images were collected with a PicoScan LE system (Molecular Imaging, Phoenix, AZ) equipped with Acoustic AC mode (Tapping mode) for ex-situ experiment. Triangular cantilevers with 160 kHz resonance frequency and 2 N/m spring constant, a V-shaped cantilever NSC16/AIBS (MikroMasch), were used in tapping mode imaging. The imaging was carried out at a scan rate of 1 line/s with 512 data points per line, at a drive current of 10±4 Å. Aliquots of 10 ul of sample were placed on a freshly cleaved mica substrate. After incubation for at least 60 min, the substrate was rinsed with water several times to remove salt and loosely bound protein and dried with high-purity nitrogen. Kinetics of α-synuclein fibrillation can be visualized with the use of this technique, as exemplified in FIG. 46.

[7] = in vivo; cited from earlier work
[8] = cited from earlier work

disaggregation of α-synuclein aggregates (α-synuclein [1]): best disaggregators
Compound: O=c1cc(-c2cc(O)c(O)c(O)c2)oc2cc(O)cc(O)c12 [5,7,3′,4′,5′-pentahydroxyflavone]

disaggregation of α-synuclein aggregates (α-synuclein [1]): best disaggregators
Compound: O=c1c(-c2ccc(O)c(O)c2)coc2cc(O)ccc12 [7,3′,4′-trihydroxyisoflavone]

protein soluble after incubation, SDS PAGE of supernatant vs. total mixture (α-synuclein [5]): most protein still soluble | fibrils with atomic force microscopy (α-synuclein [6]): very few fibrils
Compound: O=c1cc(-c2ccccc2)oc2cc(O)c(O)c(O)c12 [baicalein]

fibril formation by EM (α-synuclein [3]): negligible fibril formation | Thioflavin T signal / fibril formation by Thioflavin T fluorescence (α-synuclein [4]): negligible fibril formation | protein soluble after incubation, SDS PAGE of supernatant vs. total mixture (α-synuclein [5]): most protein still soluble
Compound: C[C@@](Cc1ccc(O)c(O)c1)(NN)C(=O)O [carbidopa]

fibril formation by EM (α-synuclein [3]): negligible fibril formation | Thioflavin T signal / fibril formation by Thioflavin T fluorescence (α-synuclein [4]): negligible fibril formation | protein soluble after incubation, SDS PAGE of supernatant vs. total mixture (α-synuclein [5]): most protein still soluble
Compound: CC(CCc1ccc(O)cc1)NCCc1ccc(O)c(O)c1 (stereo not shown) [dobutamine]

lagtime for fibrillation (α-synuclein [4]): Significant increases in
Compound: CCCCOc1ccc(C(=O)CCN2CCCCC2)cc1 [dyclonine hydrochloride]

disaggregation of α-synuclein aggregates (α-synuclein [1]): best disaggregators
Compound: O=c1c(O)c(-c2ccc(O)c(O)c2)oc2cc(O)ccc12 [fisetin]

fibril formation by EM (α-synuclein [3]): Few fibrils | Thioflavin T signal / fibril formation by Thioflavin T fluorescence (α-synuclein [4]): very low | protein in the supernatant after centrifugation (α-synuclein [5]; FIG. 1B, control samples <15%): > 90%
Compound: CC(C)NCC(O)c1ccc(O)c(O)c1 (stereo not shown) [isoproterenol]

lagtime for fibrillation (α-synuclein [4]): Significant increases in
Compound: Cc1c(OCC(F)(F)F)ccnc1C[S+]([O-])c1nc2ccccc2[nH]1 (stereo not shown) [lansoprazole]

fibril formation by EM (α-synuclein [3]): negligible fibril formation | Thioflavin T signal / fibril formation by Thioflavin T fluorescence (α-synuclein [4]): negligible fibril formation | protein soluble after incubation, SDS PAGE of supernatant vs. total mixture (α-synuclein [5]): most protein still soluble
Compound: O=C1c2ccc(O)c(O)c2C(=O)c2c(O)ccc(O)c21 [quinalizarin]

fibril formation by EM (α-synuclein [3]): negligible fibril formation | Thioflavin T signal / fibril formation by Thioflavin T fluorescence (α-synuclein [4]): negligible fibril formation | protein soluble after incubation, SDS PAGE of supernatant vs. total mixture (α-synuclein [5]): most protein still soluble
Compound: pyrogallin

The remaining lines, values behind:

Compound: O=c1cc(-c2cccc(O)c2O)oc2ccccc12 [2′,3′-dihydroxyflavone]
disaggregation of α-synuclein aggregates (α-synuclein [1]): best disaggregators

Compound: O=c1c(O)c(-c2ccc(O)c(O)c2)oc2c(O)c(O)cc(O)c12 [3,5,7,8,3′,4′-hexahydroxyflavone]
disaggregation of α-synuclein aggregates (α-synuclein [1]): best disaggregators

Compound: O=c1cc(-c2ccc(O)c(O)c2)oc2ccccc12 [3′,4′-dihydroxyflavone]
disaggregation of α-synuclein aggregates (α-synuclein [1]): best disaggregators

Compound: O=c1c(O)c(-c2ccc(O)c(O)c2)oc2ccccc12 [3′,4′-dihydroxyflavonol]
disaggregation of α-synuclein aggregates (α-synuclein [1]): best disaggregators

Compound: O=c1cc(-c2cccc(O)c2O)oc2ccc(O)cc12 [6,2′,3′-trihydroxyflavone]
disaggregation of α-synuclein aggregates (α-synuclein [1]): best disaggregators

Compound: O=c1cc(-c2cc(O)c(O)c(O)c2)oc2cc(O)ccc12 [7,3′,4′,5′-tetrahydroxyflavone]
disaggregation of α-synuclein aggregates (α-synuclein [1]): best disaggregators

Compound: CN1CCc2cccc3c2[C@H]1Cc1ccc(O)c(O)c1-3 [apomorphine, 6αβ-Aporphine-10,11-diol hydrochloride hemihydrate]
oligomer formation by SEC HPLC (α-synuclein [2]): oligomer formation | fibril formation by EM (α-synuclein [3]): negligible fibril formation | Thioflavin T signal / fibril formation by Thioflavin T fluorescence (α-synuclein [4]): very low | protein soluble after incubation, SDS PAGE of supernatant vs. total mixture (α-synuclein [5]): most protein still soluble

Compound: c1ccc(N=Nc2ccccc2)cc1 [azobenzene]
lagtime for fibrillation (α-synuclein [4]): Significant increases in

Compound: Cn1nnnc1SCC1=C(C(=O)O)N2C(=O)[C@@H](NC(=O)[C@H](O)c3ccccc3)[C@H]2SC1 [cefamandole sodium]
lagtime for fibrillation (α-synuclein [4]): Significant increases in

Compound: O=C(Cc1cccs1)N[C@@H]1C(=O)N2C(C(=O)[O-])=C(C[n+]3ccccc3)CS[C@H]12 [cephaloridine]
lagtime for fibrillation (α-synuclein [4]): Significant increases in

Compound: N.N.[Cl][Pt][Cl] [cisplatin]
fibril formation by EM (α-synuclein [3]): negligible fibril formation | Thioflavin T signal / fibril formation by Thioflavin T fluorescence (α-synuclein [4]): negligible fibril formation

Compound: NCCc1ccc(O)c(O)c1 [dopamine]
crossing of the blood-brain barrier [7]: does not cross

Compound: CCCCCCCC/C=C/CCCCCCCCOP(=O)([O-])OCC[N+](C)(C)C [elaidyphosphocholine (antineoplastic), elaidylphosphocholine]
fibril formation by EM (α-synuclein [3]): negligible fibril formation | Thioflavin T signal / fibril formation by Thioflavin T fluorescence (α-synuclein [4]): negligible fibril formation | protein soluble after incubation, SDS PAGE of supernatant vs. total mixture (α-synuclein [5]): most protein still soluble

Compound: O=C(O[C@@H]1Cc2c(O)cc(O)cc2O[C@@H]1c1cc(O)c(O)c(O)c1)c1cc(O)c(O)c(O)c1 [epigallocatechin gallate]
disaggregation of α-synuclein aggregates (α-synuclein [1]): best disaggregators

Compound: N[C@@H](Cc1ccc(O)c(O)c1)C(=O)O [l-dopa, (−)-L-a-amino-b-(3,4-dihydroxybenzene)propanoic acid]
crossing of the blood-brain barrier [7]: does cross | solubility in water [8]: slightly soluble

Compound: O=c1cc(-c2ccc(O)c(O)c2)oc2cc(O)cc(O)c12 [luteolin]
disaggregation of α-synuclein aggregates (α-synuclein [1]): best disaggregators

Compound: CCCCOc1ccc(OCCCN2CCOCC2)cc1 [pramoxine hydrochloride]
lagtime for fibrillation (α-synuclein [4]): Significant increases in

Compound: O=C1c2ccccc2C(=O)c2c(O)c(O)cc(O)c21 [purpurin]
lagtime for fibrillation (α-synuclein [4]): Significant increases in

Compound: Oc1cccc(O)c1O [pyrogallol]
disaggregation of α-synuclein aggregates (α-synuclein [1]): best disaggregators

Compound: NC(=O)c1ccc[n+]([C@@H]2O[C@H](COP(=O)([O-])OP(=O)(O)OC[C@H]3O[C@@H](n4cnc5c(N)ncnc54)[C@H](OP(=O)(O)O)[C@@H]3O)[C@@H](O)[C@H]2O)c1 [sodium beta-nicotinamide adenine dinucleotide phosphate]
lagtime for fibrillation (α-synuclein [4]): Significant increases in

Compound: chlorophyllide Cu complex Na salt
fibril formation by EM (α-synuclein [3]): negligible fibril formation | Thioflavin T signal / fibril formation by Thioflavin T fluorescence (α-synuclein [4]): negligible fibril formation | protein soluble after incubation, SDS PAGE of supernatant vs. total mixture (α-synuclein [5]): most protein still soluble
